Experimental data as given in patent US20120034193A1, “TREATMENT OF NEUROTROPHIC FACTOR MEDIATED DISORDERS” (priority 2009, published 2012).

Experiments:
BDNF mRNA = BDNF mRNA expression in rat cortical neurones under basal conditions (rt RT-PCR); assay type: cell-based; details: 30 nM
Description: (§1) Rat cortical neurones were cultured by modification of a method previously described (Singer, et al., Neuroscience Letters, 1996, 212, pp. 13-16). Twelve days after the start of culturing, sarsasapogenin (30 nM), smilagenin (30 nM), 4-methylcatechol (0.5 mM), an inducer of NGF and BDNF release (Saporito et al., Experimental Neurology., 1993, 123, pp. 295-302; Nitta et al., Journal of Pharmacology and Experimental Therapeutics, 1999, 291, pp. 1276-1283) or vehicle (dimethyl sulfoxide, DMSO, 0.25%) were added for 1, 3 or 6 h. After incubation the total messenger ribonucleic acid (mRNA) was quantified using real time reverse transcription-polymerase chain reaction (rt RT-PCR).

trkB mRNA = trkB mRNA expression in rat cortical neurones under basal conditions (rt RT-PCR); assay type: cell-based; details: 30 nM
Description: as §1

[1] = test system: rat primary cortical neurones; test: ChAT positive neurones and neurite outgrowth after β-amyloid exposure; assay type: cell-based; details: 10 μM pre-incubation 48 h, then β-amyloid 10 μg/ml 48 h
Description: Rat cortical neurones were cultured by modification of a method previously described (Eckenstein and Sofroniew, Journal of Neuroscience, 1983, 3, pp. 2286-2291). On day 8, the culture medium was changed to a medium containing vehicle (DMSO, 0.5%) or smilagenin or sarsasapogenin (10 μM). On day 10, rat primary cortical neurones were exposed to β-amyloid (10 μg/ml) for 48 h at 37° C. and the concentration of BDNF in the culture medium, the number of choline acetyltransferase (ChAT) positive cells, and the neurite outgrowth was measured (smilagenin only).

Rat sensory neurones = test: Neuronal survival in sensory neurones; assay type: cell-based, Wistar rat; details: 300 nM, 2 days
Description: Rat sensory neurones were obtained from Wistar rat embryos on the 15th day of gestation. Cells were cultured at 37° C. in 5% CO2/95% air atmosphere. Following 2 days of culturing with sarsasapogenin, smilagenin, vehicle (DMSO, 0.25%) or NGF, sensory neurones were rinsed twice with PBS and fixed in paraformaldehyde (4%) in PBS for 30 min at 4° C. Cells were permeabilised with Triton X-100 (0.1%) and non-specific sites were saturated using foetal bovine serum. Prior to staining, cells were incubated for 2 h at room temperature with a mixture of primary antibodies: anti-neurofilament 68 and 200 in PBS containing foetal bovine serum 5%. Prior to washing, slides were demounted and the cells were washed twice with PBS for 5 min, placed in a dark room for 1 h and incubated with a secondary antibody: anti-mouse coupled with cyanine 3 (Cy3; 1/1600) and an anti-rabbit coupled with fluoroisothiocyanate (FITC; 1/200) in PBS containing foetal bovine serum (5%). Slides were washed twice with PBS for 5 min and mounted on coverslips using Mowiol, an antioxidative solution (9% w/v) in glycerol (22%) buffered with Tris/HCl ([…]; pH 8.5). Slides were left overnight at room temperature to harden and stored in light protected conditions. Slides were viewed using a DAPI/FITC/Cy3 triple filter microscope with a ×20 objective. A series of photographs per well were taken at random using a digital camera.

[2] = test system: Rat dopaminergic neurones; test: Pre-treatment against MPP+-induced loss of dopaminergic neurones; assay type: cell-based; details: 30 nM, 24 h before and during MPP+ 2 μM 48 h
Description: Rat dopaminergic neurones were cultured as previously described (Schinelli et al., Journal of Neurochemistry, 1988, 50, pp. 1900-1907). On day 5, the cultures were washed and placed in fresh medium containing test compounds (30 nM), vehicle (DMSO, 0.25%) or a combination of BDNF (1.85 nM) and GDNF (0.17 nM) for 24 h.
Exposure of rat primary dopaminergic neurones to MPP^+ (2 μM, 24 h) causes a significant decrease in the number of dopaminergic neurones compared to the control. On day 6, MPP^+ (2 μM) was added to the cultures in the presence of test compounds, vehicle or a combination of BDNF and GDNF for a further 48 h. MPP^+ induces neuronal death, via inhibition of complex I in the mitochondria and consequent ATP depletion, resulting in the production of free radicals and induction of apoptosis. After the incubation period, the cultures were fixed with paraformaldehyde in PBS (4%). After fixation, the neurones were permeabilised with Triton ×100 (0.05%) for 30 min. The neurones were then incubated with anti-tyrosine hydroxylase (TH) at 37° C. for 2 h. The neurones were washed three times with PBS, and then incubated with goat anti mouse/Cy3 for 2 h at 37° C. The neurones were mounted and examined with the fluorescence microscopy.

[3] = Tissue distribution after a single oral administration, rat; assay type: in vivo; details: 18 mg/kg single oral
[4] = Tissue distribution after a single oral administration, dog; assay type: in vivo; details: Dog M, 10 mg/kg single oral
[5] = Long term oral toxicity study, non-rodents; assay type: in vivo; details: high doses, up to 52 weeks in non-rodents

Q: With `C[C@@H]1CC[C@@]2(OC1)O[C@H]1C[C@H]3[C@@H]4CC[C@@H]5C[C@@H](O)CC[C@]5(C)[C@H]4CC[C@]3(C)[C@H]1[C@@H]2C` [Smilagenin, smilagenin] as the molecule, how does the “BDNF mRNA, % increase above control” value (BDNF mRNA; 1 h) read?
A: No increase

Q: What about the “BDNF mRNA, % increase above control” value (BDNF mRNA; 3 h) of the same molecule?
A: 40%

Q: And the “BDNF mRNA, % increase above control” value (BDNF mRNA; 6 h)?
A: No increase

Q: And the “trkB mRNA, % increase above control” value (trkB mRNA; 1 h)?
A: 21%

Q: What about the “trkB mRNA, % increase above control” value (trkB mRNA; 3 h) of the same molecule?
A: 55%

Q: And the “trkB mRNA, % increase above control” value (trkB mRNA; 6 h)?
A: No increase

Q: What about the “Neurite outgrowth (% of control)” value [1] of the same molecule?
A: 85.8 ± 4.0 % of control

Q: What about the “Number of ChAT positive neurones per field (% of control)” value [1] of the same molecule?
A: 70.1 ± 9.6 % of control

Q: What about the “Neuronal survival (% of control)” value (Rat sensory neurones) of the same molecule?
A: 124.02 ± 7.64 % of control

Q: And the “Neuronal survival (% of control)” value [2]?
A: 97.91 ± 3.63 % of control

Q: What about the “Concentration of compound, Brain” value ([3]; Rat F, 1 h) of the same molecule?
A: 704 ng equivalents/g tissue

Q: And the “Concentration of compound, Plasma” value ([3]; Rat F, 1 h)?
A: 1626 ng equivalents/g tissue

Q: What about the “Concentration of compound, Spinal cord” value ([3]; Rat F, 1 h) of the same molecule?
A: 608 ng equivalents/g tissue

Q: And the “Concentration of compound, Brain” value ([3]; Rat F, 4 h)?
A: 2330 ng equivalents/g tissue

Q: What about the “Concentration of compound, Plasma” value ([3]; Rat F, 4 h) of the same molecule?
A: 1824 ng equivalents/g tissue

Q: And the “Concentration of compound, Spinal cord” value ([3]; Rat F, 4 h)?
A: 2049 ng equivalents/g tissue

Q: What about the “Concentration of compound, Brain” value ([3]; Rat F, 8 h) of the same molecule?
A: 2940 ng equivalents/g tissue

Q: What about the “Concentration of compound, Plasma” value ([3]; Rat F, 8 h) of the same molecule?
A: 1658 ng equivalents/g tissue

Q: What about the “Concentration of compound, Spinal cord” value ([3]; Rat F, 8 h) of the same molecule?
A: 2823 ng equivalents/g tissue

Q: What about the “Concentration of compound, Brain” value ([3]; Rat F, 24 h) of the same molecule?
A: 954 ng equivalents/g tissue

Q: What about the “Concentration of compound, Plasma” value ([3]; Rat F, 24 h) of the same molecule?
A: 394 ng equivalents/g tissue

Q: What about the “Concentration of compound, Spinal cord” value ([3]; Rat F, 24 h) of the same molecule?
A: 1284 ng equivalents/g tissue

Q: What about the “Concentration of compound, Brain” value ([3]; Rat F, 168 h) of the same molecule?
A: 52 ng equivalents/g tissue

Q: And the “Concentration of compound, Plasma” value ([3]; Rat F, 168 h)?
A: 46 ng equivalents/g tissue

Q: What about the “Concentration of compound, Spinal cord” value ([3]; Rat F, 168 h) of the same molecule?
A: 243 ng equivalents/g tissue

Q: And the “Concentration of compound, Brain” value ([3]; Rat M, 1 h)?
A: 769 ng equivalents/g tissue

Q: And the “Concentration of compound, Plasma” value ([3]; Rat M, 1 h)?
A: 2045 ng equivalents/g tissue

Q: And the “Concentration of compound, Spinal cord” value ([3]; Rat M, 1 h)?
A: 958 ng equivalents/g tissue

Q: What about the “Concentration of compound, Brain” value ([3]; Rat M, 4 h) of the same molecule?
A: 3372 ng equivalents/g tissue

Q: And the “Concentration of compound, Plasma” value ([3]; Rat M, 4 h)?
A: 3842 ng equivalents/g tissue

Q: What about the “Concentration of compound, Spinal cord” value ([3]; Rat M, 4 h) of the same molecule?
A: 3286 ng equivalents/g tissue

Q: And the “Concentration of compound, Brain” value ([3]; Rat M, 8 h)?
A: 4457 ng equivalents/g tissue

Q: And the “Concentration of compound, Plasma” value ([3]; Rat M, 8 h)?
A: 3896 ng equivalents/g tissue

Q: What about the “Concentration of compound, Spinal cord” value ([3]; Rat M, 8 h) of the same molecule?
A: 4520 ng equivalents/g tissue

Q: What about the “Concentration of compound, Brain” value ([3]; Rat M, 24 h) of the same molecule?
A: 1417 ng equivalents/g tissue

Q: And the “Concentration of compound, Plasma” value ([3]; Rat M, 24 h)?
A: 857 ng equivalents/g tissue

Q: And the “Concentration of compound, Spinal cord” value ([3]; Rat M, 24 h)?
A: 1957 ng equivalents/g tissue

Q: What about the “Concentration of compound, Brain” value ([3]; Rat M, 168 h) of the same molecule?
A: 122 ng equivalents/g tissue

Q: And the “Concentration of compound, Plasma” value ([3]; Rat M, 168 h)?
A: 122 ng equivalents/g tissue

Q: What about the “Concentration of compound, Spinal cord” value ([3]; Rat M, 168 h) of the same molecule?
A: 256 ng equivalents/g tissue

Q: And the “Concentration of compound, Brain” value ([4]; 2 h)?
A: 3670 ng equivalents/g tissue

Q: What about the “Concentration of compound, Plasma” value ([4]; 2 h) of the same molecule?
A: 3878 ng equivalents/g tissue

Q: What about the “Concentration of compound, Spinal cord” value ([4]; 2 h) of the same molecule?
A: 1805 ng equivalents/g tissue

Q: What about the “Concentration of compound, Brain” value ([4]; 24 h) of the same molecule?
A: 5813 ng equivalents/g tissue

Q: What about the “Concentration of compound, Plasma” value ([4]; 24 h) of the same molecule?
A: 1508 ng equivalents/g tissue

Q: What about the “Concentration of compound, Spinal cord” value ([4]; 24 h) of the same molecule?
A: 3647 ng equivalents/g tissue

Q: And the “Concentration of compound, Brain” value ([4]; 168 h)?
A: 1727 ng equivalents/g tissue

Q: And the “Concentration of compound, Plasma” value ([4]; 168 h)?
A: 1129 ng equivalents/g tissue

Q: And the “Concentration of compound, Spinal cord” value ([4]; 168 h)?
A: 3165 ng equivalents/g tissue

Q: What about the Long term toxicity [5] of the same molecule?
A: without showing any signs of toxicity or adverse events
